Results as given in BindingDB's records for doi:10.1021/jm000119i (Rensselaer Polytechnic Institute, 2000).

Assay: Binding affinity to displace radioligand [3H]naltrindole on Opioid receptor delta 1 in guinea pig membranes.

Compound	Ki
CNc1ccc2c3c1O[C@H]1[C@@H](O)C=C[C@H]4[C@@H](C2)N(C)CC[C@@]341	5.7 µM
CN1CC[C@]23c4c5ccc(Nc6ccccc6)c4O[C@H]2[C@@H](O)C=C[C@H]3[C@H]1C5	1.5 µM
CN(C)c1ccc2c3c1O[C@H]1[C@@H](O)C=C[C@H]4[C@@H](C2)N(C)CC[C@@]341	1.6 µM
CN1CC[C@]23c4c5ccc(N)c4O[C@H]2[C@@H](O)C=C[C@H]3[C@H]1C5	2.4 µM
CN1CC[C@]23c4c5ccc(NCc6ccccc6)c4O[C@H]2[C@@H](O)C=C[C@H]3[C@H]1C5	5.5 µM
